# Assay results published in US20240277829A1, “HIV-1 VACCINATION AND SAMT-247 MICROBICIDE TO PREVENT HIV-1 INFECTION” (priority 2021, published 2024).
# Entries after “also recorded” stand apart in the source; their conditions may differ.
# Tested on: mucosal Th1 and Th2 cells
# Experiment: Frequencies and cytokine levels of macaque rectal mucosal T cells following SAMT-247 and PMA stimulation
# Format: cell-based
# Excerpt: Additionally, rectal tissue from 9 macaques was used for an in vitro study. The age-matched macaques from this separate study (P204) included 4 animals vaccinated against HIV and 5 naïve animals, all challenged with SHIV. Rectal tissue was obtained post challenge from 7 infected and 2 uninfected animals for the P204 study analysis. Extra cells were available from that collection and were used here for the in vitro study.
# Frequencies and cytokine levels of macaque rectal mucosal NK cells and T cells following SAMT-247 and PMA stimulation. NK/ILC and T cell frequencies and cytokine levels were measured in macaque rectal mucosa. Freshly collected rectal biopsies were processed to single cells and cultured in R10 in the presence/or absence of SAMT-247 and/or PMA for 12 hours. Subsequently, cells were stained for live cells with Live/Dead Blue dye (cat. #L34962, 0.5 μl) from Thermofisher; followed by surface staining with the following: BUV737 anti-CD3 (SP34-2; cat. #741872, 5 μl), BV711 anti-CD4 (L200; cat. #563913, 5 μl), BV650 anti-NKp44 (P44-8; cat. #744302, 5 μl), Alexa700 anti-CD20 (2H7; cat. #560631, 5 μl), BV786 anti-CD45 (D058-1283; cat. #563861, 5 μl) from BD Biosciences; APC-H7 anti-CD11b (ICRF44; cat. #47-0118-42, 5 μl), PE-Cy5 anti-CD95 (ICRF44; cat. #15-0959-42, 5 μl) from eBioscience; BV570 anti-CD8 (RPA-T8; cat. #301038, 5 μl), BV605 anti-CCR6 (G034E3; cat. #353420, 5 μl), APC anti-CXCR3 (G025H7; cat. #353708, 5 μl), from Biolegend and PE-Cy7 anti-NKG2A (Z199; cat. #B10246, 5 μl) from Beckman coulter for 30 minutes at room temperature. This was followed by permeabilization with a FOX3-transcription buffer set (cat. #00-5523-00) from eBioscience according to the manufacture's recommendation and subsequently intracellular staining with the following: BV750 anti-TNF-α (MAB11; cat. #566359, 5 μl), BUV395 anti-IFN-γ (B27; cat. #563563, 5 μl), BV510 anti-GranB (GB11; cat. #563388, 5 μl), BV421 anti-IL-10 (JES3-9D7; cat. #564053, 5 μl) from BD Biosciences; PE-Cy5.5 anti-IL-17 (BL168; cat. #512314, 5 μl) from Biolegend; and FITC anti-Perforin (pf-344; cat. #3465-7, 5 μl) from MABTECH for 30 minutes at room temperature. Flow cytometry acquisitions were performed on a FACSymphony A5 and examined using FACSDiva software (BD Biosciences).
structure (smiles),measurement,setting,value
CCCCCCCCCCCCCC(=O)O[C@@H]1[C@@H](C)[C@@]2(O)[C@@H](C=C(CO)C[C@]3(O)C(=O)C(C)=C[C@@H]23)[C@@H]2C(C)(C)[C@]12OC(C)=O [PMA],overall mucosal Th1 and Th2 cell frequencies,PMA stimulation,did not change
same,"Cytokines, Unstim vs PMA Stimulation",mucosal Th1,>TNF-α; also recorded: >IL-10; also recorded: >IFN-γ
same,"Cytokines, Unstim vs PMA Stimulation",mucosal Th2,>IFN-γ; also recorded: >TNF-α; also recorded: >IL-10
